The text below walks through data of paper PMC9318694 (Molecules, 2022).

Like-named read-outs stand apart in the source and are kept apart here. Bounds are passed on as bounds.

Experiment [1] concerns the target T1, D2R (Homo sapiens, UniProt P14416). Description: HTRF competitive binding screening of virtual hits at 10 µM (normalized decrease in fluorescence). Particulars: for Normalized Decrease in Fluorescence ± SD: Table 3, 10 µM, n = 4, normalized to the control; for NDF (normalized decreased fluorescence) ± SD: Table S9, all selected virtual hits, n = 4, 10 µM. Background: In TR-FRET formats the signal depends on donor and acceptor labels being close together.

Experiment [2] concerns the target T1, D2R. Particulars: cited from earlier work.
Experiment [3] deals with T1, D2R. Description: HTRF KI determination of the selected ligands. It is filed as binding. The settings on record: for Fold Difference in comparison to the determined KI of dopamine / Ki: Table 4; for Ki: n = 6. On the procedure: The selected compounds were investigated in vitro to determine their binding affinities (KI values) at D2R.
All the HTRF assays were performed using a Tecan Spark plate reader. The respective settings were specifically modified and optimized for the determination of D2R ligand-binding affinities. […] Fluorophores were excited at 320 nm. A Dichroic 510 mirror was used, while lag and integration times of 100 and 400 µs were applied, respectively. Flashes were set to 75. Electronic gain was automatically optimized, while the z-position was optimized based on the well with the highest expected signal. […] The first plate was used to determine the gain and the z-position. Subsequently, the determined values were set manually for the second plate to enable direct comparison between the different plates.
The cells were stored in liquid nitrogen until further use. […] Bromocriptine mesylate (50 mg; CAYM14598-50) was acquired from VWR. The assay was conducted according to the standard operation protocol (SOP) available from PerkinElmer/cisbio. The 96-well plates were incubated at room temperature for 2 h. The 96-well plates were read on a Tecan Spark plate reader (the settings are shown in Section 4.5). The respective concentrations of the dilution series were performed in triplicates. In total, KD determination was performed three times.
The materials described in 4.6 were also used during KI determination of the ligands selected after screening. […] KI was determined following the SOP available at PerkinElmer/cisbio. The 96-well plates were incubated at room temperature in the dark for 2 h. The 96-well plates were read on a Tecan Spark plate reader (the settings are shown in Section 4.5). In total, KI determination was performed twice.

Setting [4] is: Table S2, data set of inactives, radio-ligand binding (RLB) assays, ref ChEMBL, [71]-[92], read-out: KI.

T1 sequence (P14416 whole entry): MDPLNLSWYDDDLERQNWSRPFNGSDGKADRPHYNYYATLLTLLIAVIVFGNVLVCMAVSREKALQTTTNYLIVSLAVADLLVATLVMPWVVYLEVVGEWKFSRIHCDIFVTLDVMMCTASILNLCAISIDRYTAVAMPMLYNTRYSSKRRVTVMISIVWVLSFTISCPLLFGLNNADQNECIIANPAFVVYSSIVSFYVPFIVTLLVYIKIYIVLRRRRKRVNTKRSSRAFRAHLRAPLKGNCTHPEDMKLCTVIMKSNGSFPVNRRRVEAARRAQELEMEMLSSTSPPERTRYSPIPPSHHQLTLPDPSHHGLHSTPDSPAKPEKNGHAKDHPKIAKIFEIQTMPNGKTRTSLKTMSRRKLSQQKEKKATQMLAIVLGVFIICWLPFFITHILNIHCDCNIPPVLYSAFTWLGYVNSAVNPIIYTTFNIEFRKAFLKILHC

Take `CN1CCc2cccc3c2[C@H]1Cc1ccc(O)c(O)c1-3` [Compound 1, Apomorphine]: the “Normalized Decrease in Fluorescence ± SD” value at D2R [1] is 9.44 ± 5.97.

On to `CC(C)C[C@H]1C(=O)N2CCC[C@H]2[C@]2(O)O[C@](NC(=O)[C@@H]3C=C4c5cccc6[nH]c(Br)c(c56)C[C@H]4N(C)C3)(C(C)C)C(=O)N12` [Compound 2, Bromocriptine], for which the “Normalized Decrease in Fluorescence ± SD” value on D2R [1] is 39.10 ± 1.31. On D2R [2], the inhibition constant (Ki) is 0.0009 µM.

On to `C=CC1CN2CCC1CC2C(O)c1ccnc2ccc(O)cc12` (stereo not shown) [Compound 10], for which the “NDF (normalized decreased fluorescence) ± SD” value on D2R [1] stood at 1.13 ± 0.37.

On to `CC/N=C1/SC(CC(=O)Nc2ccccc2C(F)(F)F)C(=O)N1CC` (stereo not shown) [Compound 11], for which the “NDF (normalized decreased fluorescence) ± SD” value at D2R [1] is recorded as 0.84 ± 0.23.

For the compound `CC1CC(C)CN(CCC(=O)Nc2ccc(F)c(F)c2)C1` (stereo not shown) [Compound 12], on D2R [1], the “NDF (normalized decreased fluorescence) ± SD” value is listed as 1.05 ± 0.50.

As to `CN1CCN(C2Cc3ccc(O)cc3Sc3ccc(Cl)cc32)CC1` (stereo not shown) [Compound 14], at D2R [1], the “Normalized Decrease in Fluorescence ± SD” value was found to be 40.40 ± 1.39. Also, at D2R [3], the “activity (KI range in words)” value is recorded as “nanomolar”, the “Fold Difference in comparison to the determined KI of dopamine” value (shortened to “Fold Difference in comparison”) came out at 2700 and the inhibitory constant (Ki) turned out to be 0.004 µM.

Turning to `NS(=O)(=O)c1ccc(CCNCc2ccc(-c3cc(Cl)ccc3Cl)o2)cc1` [Compound 15], on D2R [1], the “Normalized Decrease in Fluorescence ± SD” value was 3.99 ± 2.58 and the “NDF (normalized decreased fluorescence) ± SD” value was found to be 3.99 ± 2.58. In addition, on D2R [3], the “activity (KI range in words)” value is reported as “micromolar”, the “Fold Difference in comparison” value is 2.6 and the inhibitory constant (Ki) is 4.31 µM.

As to `CCN(CCC(=O)Nc1cccc(OC)c1)Cc1ccccc1` [Compound 16], at D2R [1], the “Normalized Decrease in Fluorescence ± SD” value came out at 15.74 ± 18.15 and the “NDF (normalized decreased fluorescence) ± SD” value was 15.74 ± 18.15. Besides, at D2R [3], the “Fold Difference in comparison” value was 1.1 and affinity was put at a Ki of 10 µM.

`O=C(CCCN1CC=C(n2c(=O)[nH]c3ccccc32)CC1)c1ccc(F)cc1` [Droperidol, droperidol]: the “Normalized Decrease in Fluorescence ± SD” value on D2R [1] worked out at 38.69 ± 2.56.

On to `c1cnc(N2CCN(Cc3ccc4c(c3)OCO4)CC2)nc1` [Piribedil, piribedil], for which the “Normalized Decrease in Fluorescence ± SD” value at D2R [1] stood at 9.21 ± 3.80.

Consider `COc1cccc(CCc2ccccc2OCCCCN2CCN(c3cccc(Cl)c3)CC2)c1` [SC102, 1-(3-chlorophenyl)-4-[4-[2-[2-(3-methoxyphenyl)ethyl]phenoxy]butyl]piperazine], for which the Ki on D2R [2] (setting [4]) was greater than 1000 µM.

Regarding `COc1cccc(CCc2ccccc2OCCCCCN2CCN(c3cccc(Cl)c3)CC2)c1` [SC103, 1-(3-chlorophenyl)-4-[5-[2-[2-(3-methoxyphenyl)ethyl]phenoxy]pentyl]piperazine], the inhibition constant Ki at D2R [2] (setting [4]) was greater than 1000 µM.

Turning to `COc1cccc(CCc2ccccc2OCCN2CCN(c3cccc(C(F)(F)F)c3)CC2)c1` [SC104, 1-[2-[2-[2-(3-methoxyphenyl)ethyl]phenoxy]ethyl]-4-[3-(trifluoromethyl)phenyl]piperazine], the inhibition constant (Ki) at D2R [2] (setting [4]) was greater than 1000 µM.

Regarding `COc1cccc(CCc2ccccc2OCCCN2CCN(c3cccc(C(F)(F)F)c3)CC2)c1` [SC105, 1-[3-[2-[2-(3-methoxyphenyl)ethyl]phenoxy]propyl]-4-[3-(trifluoromethyl)phenyl]piperazine], at D2R [2] (setting [4]), the Ki is 1410 µM.

Turning to `COc1cccc(CCc2ccccc2OCCCN2CCN(c3ccc(F)cc3)CC2)c1` [SC106, 1-(4-fluorophenyl)-4-[3-[2-[2-(3-methoxyphenyl)ethyl]phenoxy]propyl]piperazine], the inhibition constant (Ki) on D2R [2] (setting [4]) was 655 µM.

Turning to `COc1cccc(CCc2ccccc2OCCCN2CCN(c3cccc(Cl)c3)CC2)c1` [SC107, 1-(3-chlorophenyl)-4-[3-[2-[2-(3-methoxyphenyl)ethyl]phenoxy]propyl]piperazine], the Ki on D2R [2] (setting [4]) was 298 µM.

As to `COc1cccc(CCc2ccccc2OCCCCCN2CCN(c3ccccc3OC)CC2)c1` [SC108, 1-(2-methoxyphenyl)-4-[5-[2-[2-(3-methoxyphenyl)ethyl]phenoxy]pentyl]piperazine], the inhibition constant Ki on D2R [2] (setting [4]) is greater than 1000 µM.

For the compound `COc1cccc(CCc2ccccc2OCCN2CCN(c3ccc(F)cc3)CC2)c1` [SC109, 1-(4-fluorophenyl)-4-[2-[2-[2-(3-methoxyphenyl)ethyl]phenoxy]ethyl]piperazine], on D2R [2] (setting [4]), the Ki is greater than 1000 µM.

With `COc1cccc(CCc2ccccc2OCCCCN2CCN(c3cccc(C(F)(F)F)c3)CC2)c1` [SC110, 1-[4-[2-[2-(3-methoxyphenyl)ethyl]phenoxy]butyl]-4-[3-(trifluoromethyl)phenyl]piperazine], the inhibition constant Ki at D2R [2] (setting [4]) was greater than 1000 µM.

On to `COc1cccc(CCc2ccccc2OCCCCCN2CCN(C)CC2)c1` [SC111, 1-[5-[2-[2-(3-methoxyphenyl)ethyl]phenoxy]pentyl]-4-methylpiperazine], for which the inhibition constant (Ki) on D2R [2] (setting [4]) is greater than 1000 µM.

Consider `COc1cccc(CCc2ccccc2OCCCCN2CCc3cc(OC)c(OC)cc3C2)c1` [SC112, 6,7-dimethoxy-2-[4-[2-[2-(3-methoxyphenyl)ethyl]phenoxy]butyl]-3,4-dihydro-1H-isoquinoline], for which the Ki at D2R [2] (setting [4]) was greater than 1000 µM.

Regarding `COc1cccc(CCc2ccccc2OCCCCN2CCc3ccccc3C2)c1` [SC113, 2-[4-[2-[2-(3-methoxyphenyl)ethyl]phenoxy]butyl]-3,4-dihydro-1H-isoquinoline], on D2R [2] (setting [4]), the inhibition constant (Ki) was greater than 1000 µM.

As for `COc1cccc(CCc2ccccc2OCCN2CCc3cc(OC)c(OC)cc3C2)c1` [SC114, 6,7-dimethoxy-2-[2-[2-[2-(3-methoxyphenyl)ethyl]phenoxy]ethyl]-3,4-dihydro-1H-isoquinoline], the inhibition constant (Ki) on D2R [2] (setting [4]) is greater than 1000 µM.

As to `COc1cccc(CCc2ccccc2OCCCN2CCc3cc(OC)c(OC)cc3C2)c1` [SC115, 6,7-dimethoxy-2-[3-[2-[2-(3-methoxyphenyl)ethyl]phenoxy]propyl]-3,4-dihydro-1H-isoquinoline], at D2R [2] (read-out: KI), the Ki is greater than 1000 µM.

Take `COc1cccc(CCc2ccccc2OCCCCN2CCN(C)CC2)c1` [SC116, 1-[4-[2-[2-(3-methoxyphenyl)ethyl]phenoxy]butyl]-4-methylpiperazine]: the inhibition constant Ki on D2R [2] (setting [4]) was greater than 1000 µM.

In the case of `COc1cccc(CCc2ccccc2OCCCCN2CCN(c3ncccn3)CC2)c1` [SC117, 2-[4-[4-[2-[2-(3-methoxyphenyl)ethyl]phenoxy]butyl]piperazin-1-yl]pyrimidine], the Ki on D2R [2] (setting [4]) is 854 µM.

With `COc1cccc(CCc2ccccc2OCCCCCN2CCN(c3ncccn3)CC2)c1` [SC118, 2-[4-[5-[2-[2-(3-methoxyphenyl)ethyl]phenoxy]pentyl]piperazin-1-yl]pyrimidine], the Ki on D2R [2] (setting [4]) is greater than 1000 µM.

For `COc1cccc(CCc2ccccc2OCCCCCN2CCN(c3ccc(F)cc3)CC2)c1` [SC119, 1-(4-fluorophenyl)-4-[5-[2-[2-(3-methoxyphenyl)ethyl]phenoxy]pentyl]piperazine], the inhibition constant Ki at D2R [2] (setting [4]) was 847 µM.

Turning to `COc1cccc(CCc2ccccc2OCCN2CCN(c3ccccc3OC)CC2)c1` [SC120, 1-(2-methoxyphenyl)-4-[2-[2-[2-(3-methoxyphenyl)ethyl]phenoxy]ethyl]piperazine], the Ki on D2R [2] (setting [4]) is 427 µM.

For `COc1cccc(CCc2ccccc2OCCN2CCN(c3cccc(Cl)c3)CC2)c1` [SC121, 1-(3-chlorophenyl)-4-[2-[2-[2-(3-methoxyphenyl)ethyl]phenoxy]ethyl]piperazine], the Ki on D2R [2] (setting [4]) was greater than 1000 µM.

In the case of `COc1cccc(CCc2ccccc2OCCCCN2CCN(c3ccccc3OC)CC2)c1` [SC122, 1-(2-methoxyphenyl)-4-[4-[2-[2-(3-methoxyphenyl)ethyl]phenoxy]butyl]piperazine], the inhibition constant (Ki) at D2R [2] (setting [4]) is 67 µM.

In the case of `COc1cccc(CCc2ccccc2OCCCN2CCN(C)CC2)c1` [SC123, 1-[3-[2-[2-(3-methoxyphenyl)ethyl]phenoxy]propyl]-4-methylpiperazine], the Ki at D2R [2] (setting [4]) was 565 µM.

Take `COc1cccc(CCc2ccccc2OCCCCCN2CCc3ccccc3C2)c1` [SC124, 2-[5-[2-[2-(3-methoxyphenyl)ethyl]phenoxy]pentyl]-3,4-dihydro-1H-isoquinoline]: the inhibitory constant (Ki) at D2R [2] (setting [4]) was greater than 1000 µM.

Turning to `COc1cccc(CCc2ccccc2OCCCCCN2CCc3cc(OC)c(OC)cc3C2)c1` [SC125, 6,7-dimethoxy-2-[5-[2-[2-(3-methoxyphenyl)ethyl]phenoxy]pentyl]-3,4-dihydro-1H-isoquinoline], at D2R [2] (setting [4]), the inhibition constant (Ki) was greater than 1000 µM.

`COc1cccc(CCc2ccccc2OCCN2CCc3ccccc3C2)c1` [SC126, 2-[2-[2-[2-(3-methoxyphenyl)ethyl]phenoxy]ethyl]-3,4-dihydro-1H-isoquinoline]: the Ki on D2R [2] (read-out: KI) is greater than 1000 µM.

As for `c1ccc(CCC2CN(Cc3nc4ccccc4[nH]3)CCO2)cc1` (stereo not shown) [SC127, 4-(1H-benzimidazol-2-ylmethyl)-2-(2-phenylethyl)morpholine], the Ki on D2R [2] (setting [4]) is greater than 100 µM.

Consider `CCN1CCC[C@H]1CNC(=O)c1cc(S(N)(=O)=O)ccc1OC` [Sulpiride, (S)-(−)-sulpiride], for which the “Normalized Decrease in Fluorescence ± SD” value on D2R [1] was 30.65 ± 6.79.

In the case of SC144, at D2R [1], the “NDF (normalized decreased fluorescence) ± SD” value is 1.02 ± 0.36.

One may read the Ki as a measure of affinity in units of concentration, obtained from inhibition or displacement.
